Results reported in ChEMBL document CHEMBL4371060, “Identification of fluorinated (R)-(-)-aporphine derivatives as potent and selective ligands at serotonin 5-HT2C receptor” (Bioorg Med Chem Lett, 2019).

biological target: 5-hydroxytryptamine receptor 2A (Homo sapiens, UniProt P28223); assay: Displacement of [3H]ketanserin from 5HT2A receptor (unknown origin) expressed in HEK293T cell membranes
Sequence (P28223 whole entry): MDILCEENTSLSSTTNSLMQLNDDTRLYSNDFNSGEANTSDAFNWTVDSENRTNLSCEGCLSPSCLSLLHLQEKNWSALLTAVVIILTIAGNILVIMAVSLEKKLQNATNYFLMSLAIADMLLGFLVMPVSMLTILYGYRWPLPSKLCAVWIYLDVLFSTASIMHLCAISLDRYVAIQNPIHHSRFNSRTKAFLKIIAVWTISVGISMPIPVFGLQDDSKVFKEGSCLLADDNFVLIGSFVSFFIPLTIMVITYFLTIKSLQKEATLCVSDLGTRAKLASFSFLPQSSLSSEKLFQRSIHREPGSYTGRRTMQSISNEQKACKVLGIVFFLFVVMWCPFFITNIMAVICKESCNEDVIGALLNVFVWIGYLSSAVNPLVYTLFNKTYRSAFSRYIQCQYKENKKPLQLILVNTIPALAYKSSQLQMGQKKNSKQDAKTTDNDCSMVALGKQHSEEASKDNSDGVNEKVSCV

| Compound | Ki [nM] |
| --- | --- |
| COc1cc2c3c(c1)-c1c(cccc1OCCF)C[C@H]3N(C)CC2 | 1140 |
| CCCN1CCc2cc(OC)cc3c2[C@H]1Cc1cccc(OCCCF)c1-3 | > 10000 |
| CCCN1CCc2cc(OC)cc3c2[C@H]1Cc1cccc(OC(=O)c2ccc(F)cc2)c1-3 | 414 |
| COc1cc2c3c(c1)-c1c(cccc1OCCCF)C[C@H]3N(C)CC2 | 434 |
| COc1cc2c3c(c1)-c1c(cccc1OC(=O)c1ccc(F)cc1)C[C@H]3N(C)CC2 | 450 |
| COc1cc2c3c(c1)-c1c(cccc1OCc1ccc(F)cc1)C[C@H]3N(C)CC2 | 2310 |
| CCCN1CCc2cc(OC)cc3c2[C@H]1Cc1cccc(OCc2ccc(F)cc2)c1-3 | > 10000 |
| CCCN1CCc2cc(OC)cc3c2[C@H]1Cc1cccc(OCCF)c1-3 | > 10000 |

biological target: 5-hydroxytryptamine receptor 2B (Homo sapiens, UniProt P41595); assay: Displacement of [3H]LSD from 5HT2B receptor (unknown origin) expressed in HEK293 cell membranes
Sequence (P41595 whole entry): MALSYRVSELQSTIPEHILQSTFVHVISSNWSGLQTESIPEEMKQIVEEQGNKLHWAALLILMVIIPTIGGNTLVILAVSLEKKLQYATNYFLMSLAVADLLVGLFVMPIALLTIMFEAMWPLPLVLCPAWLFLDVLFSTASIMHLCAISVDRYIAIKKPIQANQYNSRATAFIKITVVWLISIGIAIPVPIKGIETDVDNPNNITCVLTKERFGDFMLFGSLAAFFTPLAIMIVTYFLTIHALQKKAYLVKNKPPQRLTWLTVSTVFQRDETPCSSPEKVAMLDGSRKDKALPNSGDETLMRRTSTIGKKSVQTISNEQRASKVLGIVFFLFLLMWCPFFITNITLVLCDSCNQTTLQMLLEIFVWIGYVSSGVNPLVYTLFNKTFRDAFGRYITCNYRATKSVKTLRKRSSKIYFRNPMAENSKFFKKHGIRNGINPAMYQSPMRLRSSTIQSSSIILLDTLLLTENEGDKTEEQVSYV

| Compound | Ki [nM] |
| --- | --- |
| COc1cc2c3c(c1)-c1c(cccc1OCCF)C[C@H]3N(C)CC2 | 552 |
| CCCN1CCc2cc(OC)cc3c2[C@H]1Cc1cccc(OCCCF)c1-3 | > 10000 |
| CCCN1CCc2cc(OC)cc3c2[C@H]1Cc1cccc(OC(=O)c2ccc(F)cc2)c1-3 | 106 |
| COc1cc2c3c(c1)-c1c(cccc1OCCCF)C[C@H]3N(C)CC2 | 422 |
| COc1cc2c3c(c1)-c1c(cccc1OC(=O)c1ccc(F)cc1)C[C@H]3N(C)CC2 | 102 |
| COc1cc2c3c(c1)-c1c(cccc1OCc1ccc(F)cc1)C[C@H]3N(C)CC2 | 2680 |
| CCCN1CCc2cc(OC)cc3c2[C@H]1Cc1cccc(OCc2ccc(F)cc2)c1-3 | > 10000 |
| CCCN1CCc2cc(OC)cc3c2[C@H]1Cc1cccc(OCCF)c1-3 | 3040 |

biological target: T1, 5-hydroxytryptamine receptor 2C (Homo sapiens, UniProt P28335); assay: Displacement of [3H]mesulergine from 5HT2C receptor (unknown origin) expressed in HEK293T cell membranes
T1 sequence (P28335 whole entry): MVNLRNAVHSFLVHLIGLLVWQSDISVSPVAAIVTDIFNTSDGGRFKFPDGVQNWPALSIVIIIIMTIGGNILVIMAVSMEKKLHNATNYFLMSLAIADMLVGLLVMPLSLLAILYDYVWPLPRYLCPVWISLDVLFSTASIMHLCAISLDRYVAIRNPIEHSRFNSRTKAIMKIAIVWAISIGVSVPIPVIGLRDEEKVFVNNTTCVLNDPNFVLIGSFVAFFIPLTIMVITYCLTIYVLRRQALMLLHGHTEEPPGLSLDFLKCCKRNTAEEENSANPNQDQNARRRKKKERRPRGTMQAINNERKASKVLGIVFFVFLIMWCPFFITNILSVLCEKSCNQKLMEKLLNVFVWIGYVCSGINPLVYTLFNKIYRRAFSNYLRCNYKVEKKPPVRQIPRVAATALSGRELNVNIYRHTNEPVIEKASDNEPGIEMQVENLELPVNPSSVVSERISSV

| Compound | Ki [nM] |
| --- | --- |
| COc1cc2c3c(c1)-c1c(cccc1OCCF)C[C@H]3N(C)CC2 | 343 |
| CCCN1CCc2cc(OC)cc3c2[C@H]1Cc1cccc(OCCCF)c1-3 | > 10000 |
| CCCN1CCc2cc(OC)cc3c2[C@H]1Cc1cccc(OC(=O)c2ccc(F)cc2)c1-3 | 24 |
| COc1cc2c3c(c1)-c1c(cccc1OCCCF)C[C@H]3N(C)CC2 | 338 |
| COc1cc2c3c(c1)-c1c(cccc1OC(=O)c1ccc(F)cc1)C[C@H]3N(C)CC2 | 32 |
| COc1cc2c3c(c1)-c1c(cccc1OCc1ccc(F)cc1)C[C@H]3N(C)CC2 | > 10000 |
| CCCN1CCc2cc(OC)cc3c2[C@H]1Cc1cccc(OCc2ccc(F)cc2)c1-3 | > 10000 |
| CCCN1CCc2cc(OC)cc3c2[C@H]1Cc1cccc(OCCF)c1-3 | > 10000 |

biological target: Serotonin 2 receptors; 5-HT2a & 5-HT2c (Homo sapiens) (UniProt P28223+P28335); assay: Selectivity ratio of Ki for displacement of [3H]ketanserin from 5HT2A receptor (unknown origin) expressed in HEK293T cell membranes to Ki for displacement of [3H]mesulergine from 5HT2C receptor (unknown origin) expressed in HEK293T cell membranes
Sequence (P28223 whole entry, looked up, one chain of several): as the sequence (P28223 whole entry) above

| Compound | Ratio Ki |
| --- | --- |
| COc1cc2c3c(c1)-c1c(cccc1OCCF)C[C@H]3N(C)CC2 | 3.3 |
| CCCN1CCc2cc(OC)cc3c2[C@H]1Cc1cccc(OC(=O)c2ccc(F)cc2)c1-3 | 17 |
| COc1cc2c3c(c1)-c1c(cccc1OCCCF)C[C@H]3N(C)CC2 | 1.3 |
| COc1cc2c3c(c1)-c1c(cccc1OC(=O)c1ccc(F)cc1)C[C@H]3N(C)CC2 | 14 |

species: Homo sapiens; assay: Selectivity ratio of Ki for displacement of [3H]LSD from 5HT2B receptor (unknown origin) expressed in HEK293 cell membranes to Ki for displacement of [3H]mesulergine from 5HT2C receptor (unknown origin) expressed in HEK293T cell membranes

| Compound | Ratio Ki |
| --- | --- |
| COc1cc2c3c(c1)-c1c(cccc1OCCF)C[C@H]3N(C)CC2 | 1.6 |
| CCCN1CCc2cc(OC)cc3c2[C@H]1Cc1cccc(OC(=O)c2ccc(F)cc2)c1-3 | 4.4 |
| COc1cc2c3c(c1)-c1c(cccc1OCCCF)C[C@H]3N(C)CC2 | 1.2 |
| COc1cc2c3c(c1)-c1c(cccc1OC(=O)c1ccc(F)cc1)C[C@H]3N(C)CC2 | 3.2 |

system: not listed separately; assay: Selectivity ratio of Ki for displacement of [3H]DOI from recombinant human 5HT2B receptor expressed in HEK293T cell membranes to Ki for displacement of [3H]DOI from recombinant human 5HT2C receptor expressed in HEK293T cell membranes

| Compound | Ki [nM] |
| --- | --- |
| C[C@H]1CNCCc2ccc(Cl)cc21 [LORCASERIN] | 12 |
